According to patent US20240217973A1, “IMIDAZOPYRIDINE COMPOUNDS AND USE THEREOF” (MEDSHINE DISCOVERY INC., priority 2021, published 2024):

Tests used:
[1] = Pharmacokinetic evaluation of compounds in dogs; format: in vivo; settings: dog, plasma, beagle dogs
Experimental: Experimental purpose: To test the in vivo pharmacokinetic data of compounds in beagle dogs.
(§1) The compound was mixed with the solvent 5% DMSO/5% Solutol/90% H2O, vortexed and sonicated to prepare a 0.5 mg/mL clear solution. The beagle dogs were administered the candidate compound solution intravenously. Whole blood was collected for a certain period of time, and plasma was prepared. The drug concentration was analyzed by LC-MS/MS method, and pharmacokinetic parameters were calculated.
as §1, with “administered” for “administered the”, “solutions orally.” for “solution intravenously.”, “LC- MS/MS” for “LC-MS/MS”

[2] = Hepatocyte metabolic stability experiment (HMS), H; format: in vitro ADME; settings: human, H hepatocytes, read-out: HMS CLint(liver)
Experimental: (§2) Experimental operations: 198 μL of hepatocyte suspension (0.51×10^6 cells/mL) was added to the preheated incubation plate, and 198 μL of culture medium without hepatocytes was added to T0-MC and T120-MC incubation plates for the culture medium control group, and all incubation plates were pre-incubated for 10 minutes in a 37° C. incubator. Then 2 μL of the working solution of the test and control compounds were added and mixed well, and the incubation plate was immediately put into the plate shaker in the incubator, the rotation speed was adjusted to about 650 rpm, and the timer and the reaction were started. 2 duplicate samples for each compound were prepared at each time point. Incubation conditions: 37° C., saturated humidity, and containing 5% CO2. In the test system, the final concentration of the test compound was 1 μM, the final concentration of the control compound was 3 μM, the final concentration of hepatocytes was 0.5×10^6 cells/mL, and the final concentration of the total organic solvent was 0.96%, of which the final concentration of DMSO was 0.1%. […] All samples were mixed and analyzed by LC-MS/MS method. […]

[3] = Hepatocyte metabolic stability experiment (HMS), D; format: in vitro ADME; settings: dog, D hepatocytes, read-out: HMS CLint(liver)
Experimental: as §2

[4] = Hepatocyte metabolic stability experiment (HMS), M; format: in vitro ADME; settings: mouse, M hepatocytes, read-out: HMS CLint(liver)
Experimental: as §2

[5] = Pharmacokinetic evaluation of compounds in mice; format: in vivo, CD-1 mice; settings: mouse, plasma, CD-1 male mice
Experimental: Experimental purpose: To test the in vivo pharmacokinetic data of compounds in CD-1 mice.
as §1, with “solution. CD-1 male mice aged 7 to 10 weeks” for “solution. The beagle dogs”, “were selected, and” for “were”, “were calculated by Phoenix WinNonlin software (Pharsight Company, USA).” for “were calculated.”
as §1, with “solution. CD-1 male mice aged 7 to 10 weeks” for “solution. The beagle dogs”, “were selected, and” for “were”, “solution orally.” for “solution intravenously.”, “were calculated by Phoenix WinNonlin software (Pharsight Company, USA).” for “were calculated.”

[6] = system: plasma proteins; assay: Plasma protein binding experiment (PPB), H; format: in vitro ADME, human; settings: 2 μM, 4 hours dialysis
Experimental: Experimental operation: 995 μL of blank plasma of each genus was taken, 5 μL of working solution of test compound (400 μM) or working solution of warfarin (400 μM) was added, so that the final concentrations of the test compound and warfarin in the plasma sample was 2 μM. The sample was mixed thoroughly. The final concentration of the organic phase DMSO was 0.5%; 50 μL of plasma samples of the test compound and warfarin were pipetted into the sample receiving plate (three parallels), and the corresponding volume of the corresponding blank plasma or buffer was immediately added so that the final volume of each sample well was 100 μL, with a volume ratio of 1:1 for plasma: dialysis buffer, and then 500 μL of stop solution was added to these samples, and these samples would be used as a T0 sample for the recovery and stability determination. […] All samples were analyzed by LC/MS/MS after protein precipitation, and the protein binding rate and recovery rate were calculated by the formula: % Unbound=100*F/T, % Bound=100−% Unbound, % Recovery 100*(F+T) T0 (where F was the peak area ratio of the compound in the dialysate after 4 hours of dialysis; T was the peak area ratio of the compound in the plasma after 4 hours of dialysis, and T0 was the peak area ratio of the compound in the plasma sample at zero time).

[7] = Hepatocyte metabolic stability experiment (HMS), C; format: in vitro ADME; settings: cynomolgus monkey, C hepatocytes, read-out: HMS CLint(liver)
Experimental: as §2

[8] = IV, 0.49 mg/kg (002), 0.5 mg/kg (003B)
[9] = IV, 1.0 mg/kg (002), 1.2 mg/kg (003B)
[10] = PO, 2.9 mg/kg (002), 2.85 mg/kg (003B)

AUC(0-inf) [1, 8]: 0.684 µM·h | C0 [1, 8]: 1710 nM | Vd [1, 8]: 1.5 L/kg | clearance [1, 8]: 25.6 mL/min/kg | half-life [1, 8]: 58.2 min | AUC(0-inf) ([1]; PO, 2.0 mg/kg): 2.25 µM·h | Cmax ([1]; PO, 2.0 mg/kg): 1140 nM | Tmax ([1]; PO, 2.0 mg/kg): 30 min | bioavailability ([1]; PO, 2.0 mg/kg): 82.2% | half-life ([1]; PO, 2.0 mg/kg): 42.6 min | CLint scaled at 1 μM [2]: 130 mL/min/kg | CLint scaled at 1 μM [3]: 187 mL/min/kg | CLint scaled at 1 μM [4]: 702 mL/min/kg | AUC(0-inf) [5, 9]: 0.697 µM·h | C0 [5, 9]: 4190 nM | Vd [5, 9]: 0.76 L/kg | clearance [5, 9]: 49 mL/min/kg | half-life [5, 9]: 16.8 min | AUC(0-inf) [5, 10]: 0.83 µM·h | Cmax [5, 10]: 1190 nM | Tmax [5, 10]: 4.98 min | bioavailability [5, 10]: 39.7% | half-life [5, 10]: 21 min | Unbound PPB [6]: 8.2% | CLint scaled at 1 μM [7]: 203 mL/min/kg
Structure (SMILES): Nc1nccc2c1n(-c1ccc(Oc3ccccc3)cc1)c(=O)n2[C@@H]1CCCN(C(=O)/C=C/CF)C1 [Compound 002]
